For 36 compounds, IC50 results are on record in US12485169B2, “Compounds” (GREY WOLF THERAPEUTICS LIMITED, priority 2018, dated 2025).

The target in the assay is T1, Purified ERAP1 (37-941)-10His (ERAP1) (Homo sapiens, UniProt Q9NZ08).
T1 construct: Purified ERAP1 (37-941)-10His (ERAP1)
T1 sequence (Q9NZ08 37-941): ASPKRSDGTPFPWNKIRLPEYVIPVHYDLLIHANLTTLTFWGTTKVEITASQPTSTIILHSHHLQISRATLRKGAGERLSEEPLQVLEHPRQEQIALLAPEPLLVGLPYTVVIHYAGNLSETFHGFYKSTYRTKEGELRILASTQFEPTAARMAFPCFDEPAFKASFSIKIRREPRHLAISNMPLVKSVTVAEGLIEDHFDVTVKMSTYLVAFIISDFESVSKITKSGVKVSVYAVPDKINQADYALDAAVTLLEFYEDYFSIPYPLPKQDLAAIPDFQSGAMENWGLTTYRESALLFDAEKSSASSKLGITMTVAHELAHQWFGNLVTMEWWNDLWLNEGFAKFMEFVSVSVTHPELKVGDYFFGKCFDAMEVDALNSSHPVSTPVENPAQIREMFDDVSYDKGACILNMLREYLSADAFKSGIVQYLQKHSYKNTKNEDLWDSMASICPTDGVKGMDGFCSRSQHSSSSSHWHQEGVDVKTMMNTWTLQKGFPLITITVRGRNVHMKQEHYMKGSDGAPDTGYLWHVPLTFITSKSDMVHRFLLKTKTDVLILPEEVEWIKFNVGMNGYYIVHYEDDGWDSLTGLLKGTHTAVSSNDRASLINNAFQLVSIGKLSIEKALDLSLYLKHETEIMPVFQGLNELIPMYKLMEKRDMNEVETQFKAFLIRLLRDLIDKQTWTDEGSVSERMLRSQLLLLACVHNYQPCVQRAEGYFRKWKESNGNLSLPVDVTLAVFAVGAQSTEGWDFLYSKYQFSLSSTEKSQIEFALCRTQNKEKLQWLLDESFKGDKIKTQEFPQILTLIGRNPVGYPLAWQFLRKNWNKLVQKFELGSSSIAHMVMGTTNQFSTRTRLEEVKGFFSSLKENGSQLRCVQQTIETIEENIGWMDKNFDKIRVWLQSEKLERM
The assay can be described thus: ERAP1 mediated hydrolysis of an amide substrate (10-mer inhibition assay), biochemical system. Particulars: 10-mer substrate, 23° C., 1 h, excitation 279 nm / emission 355 nm; read-out: IC50 vs Decapeptide WRVYEKC(Dnp)ALK-acid (where Dnp is Dinitrophenyl maleimide) (10-mer).
As to `CCOc1ccc(C(=O)O)cc1S(=O)(=O)Nc1cc(C(F)(F)F)ccc1N1CCCCC1` [Example 201, 4-ethoxy-3-(N-(2-(piperidin-1-yl)-5-(trifluoromethyl)phenyl)sulfamoyl)benzoic acid], the concentration for half-maximal inhibition (IC50) (in general, the concentration that inhibits the measured activity by half) is < 500 nM.

For the compound `COc1ccc(C(=O)O)cc1S(=O)(=O)Nc1cc(Cl)c(Cl)cc1N1CCCCC1` [Example 202, 3-(N-(4,5-dichloro-2-(piperidin-1-yl)phenyl)sulfamoyl)-4-methoxybenzoic acid], the IC50 is < 500 nM.

On to `CCc1ccc(C(=O)O)cc1S(=O)(=O)Nc1cc(C(F)(F)F)ccc1N1CCC(F)(F)CC1` [Example 203, 3-(N-(2-(4,4-difluoropiperidin-1-yl)-5-(trifluoromethyl)phenyl)sulfamoyl)-4-ethylbenzoic acid], for which the IC50 was < 500 nM.

Regarding `CCc1ccc(C(=O)O)cc1S(=O)(=O)Nc1cc(C(F)(F)F)ccc1N1CCCC(F)(F)C1` [Example 204, 3-(N-(2-(3,3-difluoropiperidin-1-yl)-5-(trifluoromethyl)phenyl)sulfamoyl)-4-ethylbenzoic acid], the IC50 was < 500 nM.

On to `CCc1ccc(C(=O)O)cc1S(=O)(=O)Nc1cc(C(F)(F)F)ccc1N1CCC(F)CC1` [Example 205, 4-ethyl-3-(N-(2-(4-fluoropiperidin-1-yl)-5-(trifluoromethyl)phenyl)sulfamoyl)benzoic acid], for which the IC50 was < 500 nM.

In the case of `COc1ccc(C(=O)O)cc1S(=O)(=O)Nc1cc(C(F)(F)F)ccc1N1CCC(F)CC1` [Example 206, 3-(N-(2-(4-fluoropiperidin-1-yl)-5-(trifluoromethyl)phenyl)sulfamoyl)-4-methoxybenzoic acid], the IC50 was < 500 nM.

As for `COc1ccc(C(=O)O)cc1S(=O)(=O)Nc1cc(S(C)(=O)=O)ccc1N1CCCCC1` [Example 207, 4-methoxy-3-(N-(5-(methylsulfonyl)-2-(piperidin-1-yl)phenyl)sulfamoyl)benzoic acid], the 50% inhibitory concentration (IC50) is < 500 nM.

Regarding `COc1ccc(C(=O)O)cc1S(=O)(=O)Nc1cc(C(F)(F)F)ccc1N1CCC[C@@H](F)C1` [Example 208, I-3-(N-(2-(3-fluoropiperidin-1-yl)-5-(trifluoromethyl)phenyl)sulfamoyl)-4-methoxybenzoic acid], the IC50 is < 500 nM.

Turning to `COc1ccc(C(=O)O)cc1S(=O)(=O)Nc1cc(C(F)(F)F)ccc1N1CCC[C@H](F)C1` [Example 209, (S)-3-(N-(2-(3-fluoropiperidin-1-yl)-5-(trifluoromethyl)phenyl)sulfamoyl)-4-methoxybenzoic acid], the IC50 was < 500 nM.

Take `CCc1ccc(C(=O)O)cc1S(=O)(=O)Nc1cc(C(F)(F)F)ccc1N1CCC[C@H](F)C1` [Example 210, (S)-4-ethyl-3-(N-(2-(3-fluoropiperidin-1-yl)-5-(trifluoromethyl)phenyl)sulfamoyl)benzoic acid]: the IC50 is < 500 nM.

On to `CCc1ccc(C(=O)O)cc1S(=O)(=O)Nc1cc(C(F)(F)F)ccc1N1CCC[C@@H](F)C1` [Example 211, I-4-ethyl-3-(N-(2-(3-fluoropiperidin-1-yl)-5-(trifluoromethyl)phenyl)sulfamoyl)benzoic acid], for which the IC50 was < 500 nM.

`COc1ccc(C(=O)O)cc1S(=O)(=O)Nc1cc(C(F)F)ccc1N1CCCCC1` [Example 212, 3-(N-(5-(difluoromethyl)-2-(piperidin-1-yl)phenyl)sulfamoyl)-4-methoxybenzoic acid]: the IC50 was < 500 nM.

`CCc1ccc(C(=O)O)cc1S(=O)(=O)Nc1cc(C(F)F)ccc1N1CCCCC1` [Example 213, 3-(N-(5-(difluoromethyl)-2-(piperidin-1-yl)phenyl)sulfamoyl)-4-ethylbenzoic acid]: the IC50 was < 500 nM.

Regarding `COc1ccc(C(=O)O)cc1S(=O)(=O)Nc1cc(-n2cnnn2)ccc1N1CCCCC1` [Example 214, 4-methoxy-3-(N-(2-(piperidin-1-yl)-5-(1H-tetrazol-1-yl)phenyl)sulfamoyl)benzoic acid], the IC50 was < 500 nM.

With `CCc1ccc(C(=O)O)cc1S(=O)(=O)Nc1cc(C#N)ccc1N1CCCCC1` [Example 215, 3-(N-(5-cyano-2-(piperidin-1-yl)phenyl)sulfamoyl)-4-ethylbenzoic acid], the IC50 is < 500 nM.

For `CCc1ccc(C(=O)O)cc1S(=O)(=O)Nc1cc(Cl)ccc1N1CCCCC1` [Example 216, 3-(N-(5-chloro-2-(piperidin-1-yl)phenyl)sulfamoyl)-4-ethylbenzoic acid], the IC50 is < 500 nM.

Take `CCc1ccc(C(=O)O)cc1S(=O)(=O)Nc1cc(Cl)ccc1N1CCC(F)(F)CC1` [Example 217, 3-(N-(5-chloro-2-(4,4-difluoropiperidin-1-yl)phenyl)sulfamoyl)-4-ethylbenzoic acid]: the IC50 is < 500 nM.

`COc1ccc(C(=O)O)cc1S(=O)(=O)Nc1cc(Cl)ccc1N1CCC(F)(F)CC1` [Example 218, 3-(N-(5-chloro-2-(4,4-difluoropiperidin-1-yl)phenyl)sulfamoyl)-4-methoxybenzoic acid]: the IC50 is < 500 nM.

With `COc1ccc(C(=O)O)cc1S(=O)(=O)Nc1cc(Cl)ccc1N1CCCC(F)(F)C1` [Example 219, 3-(N-(5-chloro-2-(3,3-difluoropiperidin-1-yl)phenyl)sulfamoyl)-4-methoxybenzoic acid], the IC50 was < 500 nM.

Take `CCc1ccc(C(=O)O)cc1S(=O)(=O)Nc1cc(Cl)ccc1N1CCCC(F)(F)C1` [Example 220, 3-(N-(5-chloro-2-(3,3-difluoropiperidin-1-yl)phenyl)sulfamoyl)-4-ethylbenzoic acid]: the IC50 is < 500 nM.

Take `COc1ccc(C(=O)O)cc1S(=O)(=O)Nc1cc(C#N)ccc1N1CCC(F)(F)CC1` [Example 221, 3-(N-(5-cyano-2-(4,4-difluoropiperidin-1-yl)phenyl)sulfamoyl)-4-methoxybenzoic acid]: the IC50 is < 500 nM.

Regarding `CCc1ccc(C(=O)O)cc1S(=O)(=O)Nc1cc(C#N)ccc1N1CCC(F)(F)CC1` [Example 222, 3-(N-(5-cyano-2-(4,4-difluoropiperidin-1-yl)phenyl)sulfamoyl)-4-ethylbenzoic acid], the IC50 was < 500 nM.

On to `COc1ccc(C(=O)O)cc1S(=O)(=O)Nc1cc(C#N)ccc1N1CCCC(O)C1` (stereo not drawn) [Example 223, 3-(N-(5-cyano-2-(3-hydroxypiperidin-1-yl)phenyl)sulfamoyl)-4-methoxybenzoic acid], for which the IC50 is < 500 nM.

Turning to `CCc1ccc(C(=O)O)cc1S(=O)(=O)Nc1cc(C#N)ccc1N1CCCC(O)C1` (stereo not drawn) [Example 224, 3-(N-(5-cyano-2-(3-hydroxypiperidin-1-yl)phenyl)sulfamoyl)-4-ethylbenzoic acid], the IC50 is < 500 nM.

Regarding `CS(=O)(=O)c1ccc(C(=O)O)cc1S(=O)(=O)Nc1cc(C(F)(F)F)ccc1N1CCCCC1` [Example 225, 4-(methylsulfonyl)-3-(N-(2-(piperidin-1-yl)-5-(trifluoromethyl)phenyl)sulfamoyl)benzoic acid], the IC50 is > 5000 nM.

For the compound `O=C(O)c1ccc(OCC(F)(F)F)c(S(=O)(=O)Nc2cc(C(F)(F)F)ccc2N2CCCCC2)c1` [Example 227, 3-(N-(2-(piperidin-1-yl)-5-(trifluoromethyl)phenyl)sulfamoyl)-4-(2,2,2-trifluoroethoxy)benzoic acid], the IC50 is < 5000 nM.

For `CC(C)(O)c1ccc(C(=O)O)cc1S(=O)(=O)Nc1cc(C(F)(F)F)ccc1N1CCCCC1` [Example 228, 4-(2-hydroxypropan-2-yl)-3-(N-(2-(piperidin-1-yl)-5-(trifluoromethyl)phenyl)sulfamoyl)benzoic acid], the IC50 is < 500 nM.

For `O=C(O)c1ccc(CO)c(S(=O)(=O)Nc2cc(C(F)(F)F)ccc2N2CCCCC2)c1` [Example 229, 4-(hydroxymethyl)-3-(N-(2-(piperidin-1-yl)-5-(trifluoromethyl)phenyl)sulfamoyl)benzoic acid], the IC50 is < 500 nM.

On to `CCc1ccc(C(=O)O)cc1S(=O)(=O)Nc1ccc(C(F)(F)F)cc1N1CCCCC1` [Example 230, 4-ethyl-3-(N-(2-(piperidin-1-yl)-4-(trifluoromethyl)phenyl)sulfamoyl)benzoic acid], for which the 50% inhibitory concentration (IC50) is < 500 nM.

With `CSc1ccc(C(=O)O)cc1S(=O)(=O)Nc1cc(C(F)(F)F)ccc1N1CCCCC1` [Example 232, 4-(methylthio)-3-(N-(2-(piperidin-1-yl)-5-(trifluoromethyl)phenyl)sulfamoyl)benzoic acid], the IC50 was < 500 nM.

Turning to `COc1ccc(C(=O)O)cc1S(=O)(=O)Nc1cc(C#N)ccc1N1CCCC(F)(F)C1` [Example 233, 3-(N-(5-cyano-2-(3,3-difluoropiperidin-1-yl)phenyl)sulfamoyl)-4-methoxybenzoic acid], the half-inhibitory concentration (IC50) was < 500 nM.

With `CCc1ccc(C(=O)O)cc1S(=O)(=O)Nc1cc(C#N)ccc1N1CCCC(F)(F)C1` [Example 234, 3-(N-(5-cyano-2-(3,3-difluoropiperidin-1-yl)phenyl)sulfamoyl)-4-ethylbenzoic acid], the IC50 is < 500 nM.

As for `COc1ccc(C(=O)O)cc1S(=O)(=O)Nc1cc(C(F)(F)F)ccc1N1CCCC[C@H]1C` [Example 235, I-4-methoxy-3-(N-(2-(2-methylpiperidin-1-yl)-5-(trifluoromethyl)phenyl)sulfamoyl)benzoic acid], the IC50 was < 500 nM.

Consider `CCc1ccc(C(=O)O)cc1S(=O)(=O)Nc1cc(C(F)(F)F)ccc1N1CCCC[C@H]1C` [Example 236, I-4-ethyl-3-(N-(2-(2-methylpiperidin-1-yl)-5-(trifluoromethyl)phenyl)sulfamoyl)benzoic acid], for which the IC50 is < 500 nM.

As to `COc1ccc(C(=O)O)cc1S(=O)(=O)Nc1cc(C(F)(F)F)ccc1N1CCC(C#N)CC1` [Example 237, 3-(N-(2-(4-cyanopiperidin-1-yl)-5-(trifluoromethyl)phenyl)sulfamoyl)-4-methoxybenzoic acid], the IC50 is < 500 nM.

As to `CCc1ccc(C(=O)O)cc1S(=O)(=O)Nc1cc(C(F)(F)F)ccc1N1CCC(C#N)CC1` [Example 238, 3-(N-(2-(4-cyanopiperidin-1-yl)-5-(trifluoromethyl)phenyl)sulfamoyl)-4-ethylbenzoic acid], the IC50 was < 500 nM.
